Activity calls are given as the source filed them. No cut-off for these calls is given here.
What was measured:
Kluyveromyces marxianus = assay: Antifungal activity against Kluyveromyces marxianus at 10 mg/ml after 48 hrs by disc diffusion method; assay type: functional, organism-based
U-251 = assay: Cytotoxicity against human U251 assessed as cell growth at 10 uM after 48 hrs by SRB assay; assay type: functional; conditions: U-251, 48 h, read-out: Activity
SNB-19 = assay: Cytotoxicity against human SNB19 assessed as cell growth at 10 uM after 48 hrs by SRB assay; assay type: functional; conditions: SNB-19, 48 h, read-out: Activity
Salmonella paratyphi = assay: Antibacterial activity against Salmonella paratyphi at 10 mg/ml after 24 hrs by disc diffusion method; assay type: functional, organism-based; conditions: Salmonella enterica subsp. enterica serovar Paratyphi A
[1] = tested on: Acinetobacter radioresistens; assay: Antibacterial activity against Acinetobacter radioresistens at 6.25 to 200 ug/ml after 24 hrs by microwell dilution method; assay type: functional, organism-based
RXF 393 = assay: Cytotoxicity against human RXF393 assessed as cell growth at 10 uM after 48 hrs by SRB assay; assay type: functional; conditions: RXF 393, 48 h, read-out: Activity
Pseudomonas aeruginosa [2] = assay: Antibacterial activity against Pseudomonas aeruginosa at 10 mg/ml after 24 hrs by disc diffusion method; assay type: functional, organism-based
Hs-578T = assay: Cytotoxicity against human Hs 578T assessed as cell growth at 10 uM after 48 hrs by SRB assay; assay type: functional; conditions: read-out: Activity
OVCAR-8 = assay: Cytotoxicity against human OVCAR8 assessed as cell growth at 10 uM after 48 hrs by SRB assay; assay type: functional; conditions: OVCAR-8, 48 h, read-out: Activity
Malme-3M = assay: Cytotoxicity against human MALME-3M assessed as cell growth at 10 uM after 48 hrs by SRB assay; assay type: functional; conditions: read-out: Activity
Micrococcus luteus = assay: Antibacterial activity against Micrococcus luteus at 6.25 to 200 ug/ml after 24 hrs by microwell dilution method; assay type: functional, organism-based
SF-268 = assay: Cytotoxicity against human SF268 assessed as cell growth at 10 uM after 48 hrs by SRB assay; assay type: functional; conditions: SF-268, 48 h, read-out: Activity
Staphylococcus aureus = assay: Antibacterial activity against Staphylococcus aureus at 6.25 to 200 ug/ml after 24 hrs by microwell dilution assay; assay type: functional, organism-based
SNB-75 = assay: Cytotoxicity against human SNB75 assessed as cell growth at 10 uM after 48 hrs by SRB assay; assay type: functional; conditions: SNB-75, 48 h, read-out: Activity
A498 = assay: Cytotoxicity against human A498 assessed as cell growth at 10 uM after 48 hrs by SRB assay; assay type: functional; conditions: A498, 48 h, read-out: Activity
SR = assay: Cytotoxicity against human SR assessed as cell growth at 10 uM after 48 hrs by SRB assay; assay type: functional; conditions: read-out: Activity
Staphylococcus cohnii [3] = assay: Antibacterial activity against Staphylococcus cohnii at 10 mg/ml after 24 hrs by disc diffusion method; assay type: functional
Candida parapsilosis = assay: Antifungal activity against Candida parapsilosis at 10 mg/ml after 48 hrs by disc diffusion method; assay type: functional, organism-based
MDA-MB-435 = assay: Cytotoxicity against human MDA-MB-435 assessed as cell growth at 10 uM after 48 hrs by SRB assay; assay type: functional; conditions: MDA-MB-435, 48 h, read-out: Activity
SN12C = assay: Cytotoxicity against human SN12C assessed as cell growth at 10 uM after 48 hrs by SRB assay; assay type: functional; conditions: read-out: Activity
LOX IMVI = assay: Cytotoxicity against human LOXIMVI assessed as cell growth at 10 uM after 48 hrs by SRB assay; assay type: functional; conditions: read-out: Activity
HCC 2998 = assay: Cytotoxicity against human HCC2998 assessed as cell growth at 10 uM after 48 hrs by SRB assay; assay type: functional; conditions: HCC 2998, 48 h, read-out: Activity
SK-MEL-5 = assay: Cytotoxicity against human SK-MEL-5 assessed as cell growth at 10 uM after 48 hrs by SRB assay; assay type: functional; conditions: SK-MEL-5, 48 h, read-out: Activity
NCI-H322M = assay: Cytotoxicity against human NCI-H322M assessed as cell growth at 10 uM after 48 hrs by SRB assay; assay type: functional; conditions: read-out: Activity
UACC-62 = assay: Cytotoxicity against human UACC62 assessed as cell growth at 10 uM after 48 hrs by SRB assay; assay type: functional; conditions: UACC-62, 48 h, read-out: Activity
NCI-H460 = assay: Cytotoxicity against human NCI-H460 assessed as cell growth at 10 uM after 48 hrs by SRB assay; assay type: functional; conditions: NCI-H460, 48 h, read-out: Activity
Staphylococcus cohnii [4] = assay: Antibacterial activity against Staphylococcus cohnii at 6.25 to 200 ug/ml after 24 hrs by microwell dilution assay; assay type: functional, organism-based
Pseudomonas aeruginosa [5] = assay: Antibacterial activity against Pseudomonas aeruginosa at 6.25 to 200 ug/ml after 24 hrs by microwell dilution method; assay type: functional, organism-based
EKVX = assay: Cytotoxicity against human EKVX assessed as cell growth at 10 uM after 48 hrs by SRB assay; assay type: functional; conditions: read-out: Activity
NCI-H23 = assay: Cytotoxicity against human NCI-H23 assessed as cell growth at 10 uM after 48 hrs by SRB assay; assay type: functional; conditions: NCI-H23, 48 h, read-out: Activity
M14 = assay: Cytotoxicity against human M14 assessed as cell growth at 10 uM after 48 hrs by SRB assay; assay type: functional; conditions: M14, 48 h, read-out: Activity
SF-295 = assay: Cytotoxicity against human SF295 assessed as cell growth at 10 uM after 48 hrs by SRB assay; assay type: functional; conditions: SF-295, 48 h, read-out: Activity
DU-145 = assay: Cytotoxicity against human DU145 assessed as cell growth at 10 uM after 48 hrs by SRB assay; assay type: functional; conditions: DU-145, 48 h, read-out: Activity
BT-549 = assay: Cytotoxicity against human BT549 assessed as cell growth at 10 uM after 48 hrs by SRB assay; assay type: functional; conditions: BT-549, 48 h, read-out: Activity
MDA-MB-468 = assay: Cytotoxicity against human MDA-MB-468 assessed as cell growth at 10 uM after 48 hrs by SRB assay; assay type: functional; conditions: MDA-MB-468, 48 h, read-out: Activity
CCRF-CEM = assay: Cytotoxicity against human CCRF-CEM assessed as cell growth at 10 uM after 48 hrs by SRB assay; assay type: functional; conditions: read-out: Activity
PC-3 = assay: Cytotoxicity against human PC3 assessed as cell growth at 10 uM after 48 hrs by SRB assay; assay type: functional; conditions: PC-3, 48 h, read-out: Activity
SK-MEL-2 = assay: Cytotoxicity against human SK-MEL-2 assessed as cell growth at 10 uM after 48 hrs by SRB assay; assay type: functional; conditions: SK-MEL-2, 48 h, read-out: Activity
SF-539 = assay: Cytotoxicity against human SF539 assessed as cell growth at 10 uM after 48 hrs by SRB assay; assay type: functional; conditions: SF-539, 48 h, read-out: Activity
HCT-15 = assay: Cytotoxicity against human HCT15 assessed as cell growth at 10 uM after 48 hrs by SRB assay; assay type: functional; conditions: HCT-15, 48 h, read-out: Activity
T47D = assay: Cytotoxicity against human T47D assessed as cell growth at 10 uM after 48 hrs by SRB assay; assay type: functional; conditions: read-out: Activity
MCF7 = assay: Cytotoxicity against human MCF7 assessed as cell growth at 10 uM after 48 hrs by SRB assay; assay type: functional; conditions: MCF7, 48 h, read-out: Activity

## CC(C(=O)NN1C(=O)CSC1c1ccc(C(F)(F)F)cc1)c1ccc(-c2ccccc2)c(F)c1 (configuration not stated)
Kluyveromyces marxianus
  Activity: inactive
U-251
  growth at 10 µM: 65.2%
SNB-19
  growth at 10 µM: 54.7%
Salmonella paratyphi
  Activity: inactive
[1]
  Activity: inactive
RXF 393
  growth at 10 µM: 72.5%
Pseudomonas aeruginosa [2]
  Activity: inactive
Hs-578T
  growth at 10 µM: 54.2%
OVCAR-8
  growth at 10 µM: 86.5%
Malme-3M
  growth at 10 µM: 63%
Micrococcus luteus
  Activity: inactive
SF-268
  growth at 10 µM: 62.1%
Staphylococcus aureus
  Activity: inactive
SNB-75
  growth at 10 µM: 43%
A498
  growth at 10 µM: 56.8%
SR
  growth at 10 µM: 20.8%
Staphylococcus cohnii [3]
  Activity: inactive
Candida parapsilosis
  Activity: inactive
MDA-MB-435
  growth at 10 µM: 66.7%
SN12C
  growth at 10 µM: 72.3%
LOX IMVI
  growth at 10 µM: 74.5%
HCC 2998
  growth at 10 µM: 155%
SK-MEL-5
  growth at 10 µM: 81.8%
NCI-H322M
  growth at 10 µM: 76.9%
UACC-62
  growth at 10 µM: 50.9%
NCI-H460
  growth at 10 µM: 40.5%
Staphylococcus cohnii [4]
  Activity: inactive
Pseudomonas aeruginosa [5]
  Activity: inactive
EKVX
  growth at 10 µM: 57.9%
NCI-H23
  growth at 10 µM: 90.4%
M14
  growth at 10 µM: 54.5%
SF-295
  growth at 10 µM: 58.4%
DU-145
  growth at 10 µM: 81.5%
BT-549
  growth at 10 µM: 68%
MDA-MB-468
  growth at 10 µM: 59.4%
CCRF-CEM
  growth at 10 µM: 74.7%
PC-3
  growth at 10 µM: 37.5%
SK-MEL-2
  growth at 10 µM: 88.4%
SF-539
  growth at 10 µM: 63%
HCT-15
  growth at 10 µM: 69.5%
T47D
  growth at 10 µM: 33.4%
MCF7
  growth at 10 µM: 43%

Source: ChEMBL document CHEMBL3046898, “Synthesis and characterization of flurbiprofen hydrazide derivatives as potential anti-HCV, anticancer and antimicrobial agents” (2013)
